# Columns and labels:
# Format in all cases: cell-based, human
# MCF-7 cells [1] = assay: MCF-7 cell growth, cell number after 7 days; details: 100 nM RA, LGD1550, LGD1268, 10 μM LG100815, LG101208
# Procedure: The bars represent cell number after 7 days of culture with the addition of DMSO (control), 100 nM RA, 100 nM RAR agonist LGD1550, 100 nM RXR agonist LGD1268, 10 μM RAR antagonist LG100815, and 10 μM RXR antagonist LG101208. Experiments were done in triplicate, and the results are expressed relative to the average of the control.
# (§1) To test this, we have analyzed the effects of different compounds on the growth of MCF-7 cells, as measured by the cell number after 7 days exposure to the compounds (FIG. 2) and on the fraction of cells expressing the senescence-associated β-galactosidase activity (SA-β-gal), a marker of senescence, after 7-day treatment with the compounds (FIG. 3).
# [2] = system: retinoid-inducible genes EPLIN, UBD, IGFBP3, TGFB1 and TRIM31 in MCF-7 cells (subline MCF-7 3′SS6); assay: real-time RT-PCR (QPCR) of retinoid-inducible gene expression, 2 days treatment; details: for Fold induction EPLIN / Fold induction IGFBP3 / Fold induction TGFBI / Fold induction TRIM31 / Fold induction UBD: 2 days, MCF-7
# Source text: The following compounds were obtained from Ligand Pharmaceuticals (San Diego, Calif.). LGD1550 is a pan-RAR agonist. LGD1268 is a pan-RXR agonist. LG100815 is a pan-RAR antagonist. LG101208 is a pan-RXR antagonist. The LG100815 compound is a specific RAR antagonist that binds to RAR, but fails to activate its Retinoic Acid Responsive Element (RARE)-dependent transcription transactivation function (see Lee et al, Mol. Cell Biol. 19: 1973-1980 (1999)). Also used was all-trans retinoic acid (RA), the most commonly used RAR agonist. To determine how these compounds affect the expression of retinoid-inducible growth inhibitory genes EPLIN, UBD, IGFBP3 and TGFB1, as well as TRIM31 gene that contains a putative RARE element in its promoter, MCF-7 cells (subline MCF-7 3′SS6) were treated with individual compounds or their combinations for 2 days, and RNA was extracted by standard procedures. In the initial assays, gene expression was analyzed by semi-quantitative reverse transcription-PCR (RT-PCR), as described in Dokmanovic et al., Cancer Biology & Therapy 1:24-27 (2002). In subsequent assays, the initial results were confirmed, expanded and quantitated by real-time RT-PCR (QPCR), using Applied BioSystems 7900HT real-time PCR instrument. β-actin was used as a normalization standard.
# cDNA was prepared by reverse transcription with random primer using 4 μg total RNA. 5 μl SYBR Green PCR Master Mix (Applied Biosystems) was mixed with […] cDNA and 0.8 pmol of gene-specific primers and brought up to 10 μl with ultra pure H2O in 384-well optical plates. For amplification, reaction mixtures were heated for 2 min at 50° C. and 10 min at 95° C., followed by 40 cycles of two-step PCR consisting of 15 sec at 95° C. and 1 min at 60° C., to construct dissociation curves and verify that single PCR products were obtained. PCR products were also analyzed by gel electrophoresis to confirm that a single product of the expected size was amplified. […] The comparative CT method for relative quantitation of gene expression described by Applied Biosystems was used to determine expression levels for target genes. Experiments were carried out in triplicate for each data point. Sequence Detection Systems software version 2.1 (Applied Biosystems) and Microsoft Excel were used for data analysis.
# MCF-7 cells [3] = assay: senescence-associated β-galactosidase (SA-β-gal) positive cells; details: 7-day treatment (FIG. 3 legend: 8 days); concentrations as in FIG. 2
# Source text: The bars represent percentages of SA-β-gal+ cells after 8 days of treatment with the indicated compounds (in triplicate). The compounds were used at the same concentrations as in FIG. 2.
# as §1
smiles,measurement,setting,value
CC(/C=C/C=C(\C)c1cc(C(C)(C)C)cc(C(C)(C)C)c1)=C\C(=O)O [LGD1550],effect on MCF-7 cell growth (cell number),MCF-7 cells [1],inhibited the cell growth
same,ratio of the fold-induction of TGFB1 relative to TRIM31,[2]; 100 nM,0.12
same,Fold induction EPLIN,[2]; 100 nM,4.2 ± 0.8 fold
same,Fold induction IGFBP3,[2]; 100 nM,4.2 ± 2.0 fold
same,Fold induction TGFBI,[2]; 100 nM,5.1 ± 0.6 fold
same,Fold induction TRIM31,[2]; 100 nM,42.7 ± 1.3 fold
same,Fold induction UBD,[2]; 100 nM,9.5 ± 0.2 fold
same,ratio of the fold-induction of TGFB1 relative to TRIM31,[2]; 1 μM,0.12
same,Fold induction EPLIN,[2]; 1 μM,3.2 ± 0.3 fold
same,Fold induction IGFBP3,[2]; 1 μM,3.7 ± 0.7 fold
same,Fold induction TGFBI,[2]; 1 μM,3.5 ± 0.4 fold
same,Fold induction TRIM31,[2]; 1 μM,30.3 ± 0.7 fold
same,Fold induction UBD,[2]; 1 μM,7.7 ± 1.1 fold
same,ratio of the fold-induction of TGFB1 relative to TRIM31,[2]; 10 μM,0.12
same,Fold induction EPLIN,[2]; 10 μM,4.9 ± 2.5 fold
same,Fold induction IGFBP3,[2]; 10 μM,2.8 ± 1.6 fold
same,Fold induction TGFBI,[2]; 10 μM,5.6 ± 0.1 fold
same,Fold induction TRIM31,[2]; 10 μM,45.0 ± 1.4 fold
same,Fold induction UBD,[2]; 10 μM,7.3 ± 1.1 fold
same,"effect on expression of the five genes (IGFBP3, EPLIN, UBD, TGFB1, TRIM31)","[2]; summary of Table 2, MCF-7",induced all five genes to approximately the same extent as RA
same,induction of senescent phenotype (SA-β-gal+ cells),MCF-7 cells [3],induced SA-β-gal to an extent similar to that of RA
